In patent publication US20190223483A1, “SENSORY MODIFIER COMPOUNDS” (CARGILL, INCORPORATED, priority 2017, published 2019):

Test: Roundtable assessment of astringency
Type: in vivo
Details: RebM 700 ppm, modifier between 0 ppm and about 500 ppm
Description: For other sweetness attributes, the solutions were tested by a panel of at least four individuals that are highly-trained in tasting steviol glycoside solutions. The highly-trained panelists used a roundtable methodology to assess each sweetness attribute. To test each solution, the highly-trained panelists dispensed approximately 2 mL of each solution into their own mouths by transfer pipet, dispersed the solution by moving their tongues, and recorded a value for the particular sweetness attribute being tested. Between tasting solutions, the panelists were able to cleanse their palates with water. For each sweetness attribute, the panelist agreed on a descriptive scale with relative intensities assigned for each sweetness attribute and then recorded the values for each sweetness attribute against this. For example, this roundtable assessment of sweetness linger assigned a scale of 0 to 6 with a score of 0 indicating no sweetness linger and a score of 6 indicating extreme sweetness linger. Roundtable assessment of sweetness linger assigned a scale of 0 to 6 with a score of 0 indicating no sweetness linger and a score of 6 indicating extreme sweetness linger (0=none, 1=trace, 2=slight, 3=moderate, 4=definite, 5=strong, 6=extreme). Roundtable assessment of rounded assigned a scale of 0 to 3 with a score of 0 indicating spikey and a score of 3 indicating desirable rounded (0=none, 1=mostly spikey, some rounded, 2=mostly rounded, some spikey, 3=rounded). Roundtable assessment of mouthfeel assigned a scale of 0 to 2 with a score of 0 indicating water and a score of 2 indicating syrupy (0=water, 1=sucrosey, 2=syrupy). Roundtable assessment of bitterness assigned a scale of 0 to 6 with a score of 0 indicating no bitterness and a score of 6 indicating extreme sweetness linger (0=none, 1=trace, 2=slight, 3=moderate, 4=definite, 5=strong, 6=extreme). Roundtable assessment of off tastes assigned a scale of 0 to 6 with a score of 0 indicating no bitterness and a score of 6 indicating extreme off tastes (0=none, 1=trace, 2=slight, 3=moderate, 4=definite, 5=strong, 6=extreme).
Roundtable assessment of botanical notes assigned a scale of 0 to 5 with a score of 0 indicating no botanical notes and a score of 5 indicating strong (0=none, 1=trace, 2=slight, 3=moderate, 4=definite, 5=strong).
Solutions of steviol glycosides and sensory modifier compound were prepared at increasing ratios of sensory modifier to steviol glycoside by weight. […] The concentration of steviol glycosides was 700 ppm in each solution. The solutions were tested for astringency.

O=C(/C=C/c1ccc(O)c(O)c1)O[C@@H](C(=O)O)[C@@H](OC(=O)/C=C/c1ccc(O)c(O)c1)C(=O)O [tartaric backbone (cichoric acid), cichoric acid]
Astringency: imperceptible
